Measured values taken from publication PMC8370991, “Structural basis for the inhibition of HTLV-1 integration inferred from cryo-EM deltaretroviral intasome structures” (Nature Communications, 2021).
Read-outs that look alike come from different tables or passages of the source.

Key:
HTLV-1 = experiment: MT-2-Jurkat cell-to-cell HTLV-1 infection, proviral load by qPCR; assay type: cell-based
Protocol: Six of the most promising compounds were selected for assessment of their efficacy in inhibiting HTLV-1 viral infection. To this end, we employed an MT-2-Jurkat co-culture relying on cell-to-cell-based HTLV-1 transmission, which we successfully used in a previous study. In this assay format, the infection of Jurkat cells is measured via real-time quantitative PCR (qPCR) determination of the proviral load (PVL). […] A block in the integration reaction was confirmed by Alu-qPCR experiments (Supplementary Fig. 6). […] We suspect this is owing to a more efficient uptake of BIC than RAL by Jurkat T cells.
MT-2 and E6.1 Jurkat T-cell lines (ATCC) were used for the experiments. The cells were cultured at 37 °C with 5% CO2 and maintained in Roswell Park Memorial Institute (RPMI) media supplemented with 10% fetal bovine serum (FBS), 100 U penicillin, 100 μg/mL streptomycin and 0.25 μg/mL fungizone.
The HTLV-1 cell-to-cell infection was performed as previously described; Jurkat T cells were counted and diluted in complete RPMI to a final concentration of 0.25 × 10^6 cells/ml and pre-treated with INSTI drugs (final concentration ranging from 0.2 pM to 2 μM) or DMSO as a control for 24 h. MT-2 cells were resuspended in RPMI at a concentration of 2 × 10^6 cells/ml and subjected to a nonlethal γ-radiation dose of 400 Gy. Cells were resuspended at a concentration of 2 × 10^6 cells/ml in serum-free RPMI supplemented with the corresponding INSTI drug. Co-culture of 0.5 × 10^6 for each cell line was carried out for 16 h, after which cells were washed in PBS and resuspended in 1 ml of depletion buffer (PBS, 0.1% FBS and 2 mM EGTA). MT-2 cells were depleted from the culture by means of anti-CD25 magnetic beads (DynabeadsTM CD25, Thermo Fisher). Depletion efficiency was confirmed via flow cytometry as described previously. Jurkat cells were cultured for 2 weeks in complete RPMI supplemented with the drugs and genomic DNA was extracted (DNeasy kit, Qiagen) and stored at −20 °C for subsequent analysis. All the experiments were done in triplicate.
The PVL was measured as previously described[9],[53],[54]. Jurkat genomic DNA was quantified and diluted to a concentration of 5 ng/μL. Real-time qPCR analysis were conducted on 20 ng of gDNA to measure the level of HTLV-1 tax and gapdh genes (Supplementary Table 5). For the standard curve, the gDNA from an HTLV-1 naturally infected T-cell clone (clone 11.50, courtesy of professor Charles Bangham), which has one copy of tax and two of gapdh, was used. The integrated provirus copy number was calculated as follows: (tax copy numbers)/(2×gapdh copy number)[53], and normalised to the DMSO-treated control which was set to 100%. The PVL data were fitted to a dose–response curve in Prism 7 and the EC50 was calculated. Alu-PCR was performed as previously described in ref. [55]. In brief, the first PCR reaction was done with Phusion polymerase starting from 80 ng of gDNA using the ALU-specific primers (Alu-F/Gag-R). The nested PCR was run diluting the amplificated product 1:50. The reaction was done as a qPCR using Gag-specific primers (Gag-R/Gag-F) and the Luna SYBR dye reaction mix (New England Biolabs). The integrated provirus copy numbers were normalised to GAPDH and Jurkat cells treated with DMSO and infected with HTLV-1 were set to 100%. Experiments were done in triplicate.

HIV-1 = conditions: cited from earlier work
[1] = MT-2-Jurkat cell-to-cell infection, proviral load, n = 3, read-out: HTLV-1 EC50 ± stdev
[2] = Replicate 1, read-out: HTLV-1 infection EC50
[3] = Replicate 2, read-out: HTLV-1 infection EC50
[4] = Replicate 3, read-out: HTLV-1 infection EC50
[5] = HTLV-1 infection of Jurkat T cells
[6] = previously reported, read-out: EC50, infection by wild-type HIV-1

SMILES: CC(C)n1c(C(=O)N(C)C)c2c(c(O)c1=O)C(=O)N(Cc1ccc(F)c(Cl)c1)CC2 [XZ236, 6-(3-chloro-4-fluorobenzyl)-4-hydroxy-2-isopropyl-N,N-dimethyl-3,5-dioxo-2,3,5,6,7,8-hexahydro-2,6-naphthyridine-1-carboxamide, reference compound]
- EC50 (HTLV-1; [1]): 3.74 ± 1.42 nM
- EC50 (HTLV-1; [2]): 5.38 nM
- EC50 (HTLV-1; [3]): 1.48 nM
- EC50 (HTLV-1; [4]): 4.41 nM
- EC50 (HIV-1; HIV-1 infection model, supplementary ref 7, read-out: HIV-1 EC50 ± stdev): 17 ± 4 nM

SMILES: Nc1c(C(=O)NCc2ccc(F)cc2F)c(=O)n(O)c2ncc(CCCO)cc12 [XZ423, 4-amino-N-(2,4-difluorobenzyl)-1-hydroxy-6-(3-hydroxypropyl)-2-oxo-1,2-dihydro-1,8-naphthyridine-3-carboxamide]
- EC50 (HTLV-1; [1]): 4.11 ± 1.52 nM
- EC50 (HTLV-1; [2]): 3.95 nM
- EC50 (HTLV-1; [3]): 3.49 nM
- EC50 (HTLV-1; [4]): 1.75 nM
- EC50 (HIV-1; HIV-1 infection model, supplementary ref 1, read-out: HIV-1 EC50 ± stdev): 3.1 ± 2 nM

SMILES: Nc1c(C(=O)NCc2ccc(F)cc2F)c(=O)n(O)c2ncc(CCS(=O)(=O)c3ccccc3)cc12 [XZ446, 4-amino-N-(2,4-difluorobenzyl)-1-hydroxy-2-oxo-6-(2-(phenylsulfonyl)ethyl)-1,2-dihydro-1,8-naphthyridine-3-carboxamide]
- improvement in EC50 compared with RAL (HTLV-1; [5]): ~2.5- to fivefold and two- to fivefold
- EC50 (HTLV-1; [1]): 2.57 ± 0.81 nM
- EC50 (HTLV-1; [2]): 3.46 nM
- EC50 (HTLV-1; [3]): 2.16 nM
- EC50 (HTLV-1; [4]): 1.94 nM
- EC50 (HIV-1; previously reported, read-out: EC50, inhibitory potency for HIV-1): 2 ± 0.1 nM

SMILES: Nc1c(C(=O)NCc2ccc(F)cc2F)c(=O)n(O)c2ncc(CCC(=O)NCCO)cc12 [XZ448, 4-amino-N-(2,4-difluorobenzyl)-1-hydroxy-6-(3-((2-hydroxyethyl)amino)-3-oxopropyl)-2-oxo-1,2-dihydro-1,8-naphthyridine-3-carboxamide]
- lower activity in blocking HTLV-1 infection compared with RAL (HTLV-1; [5]): ~ 20 fold
- EC50 (HTLV-1; [1]): 139 ± 81 nM
- EC50 (HTLV-1; [2]): 125 nM
- EC50 (HTLV-1; [3]): 146 nM
- EC50 (HTLV-1; [4]): 116 nM
- EC50 (HIV-1; [6]): 263 ± 52 nM

SMILES: CN(C)C(=O)CCc1cnc2c(c1)c(N)c(C(=O)NCc1ccc(F)cc1F)c(=O)n2O [XZ450, 4-amino-N-(2,4-difluorobenzyl)-6-(3-(dimethylamino)-3-oxopropyl)-1-hydroxy-2-oxo-1,2-dihydro-1,8-naphthyridine-3-carboxamide]
- improvement in EC50 compared with RAL (HTLV-1; [5]): ~2.5- to fivefold and two- to fivefold
- EC50 (HTLV-1; Primate T-lymphotropic virus 1, read-out: HTLV-1 EC50 ± stdev, MT-2-Jurkat cell-to-cell infection, proviral load, n = 3): 1.67 ± 1.52 nM
- EC50 (HTLV-1; Primate T-lymphotropic virus 1, read-out: HTLV-1 infection EC50, Replicate 1): 2.34 nM
- EC50 (HTLV-1; Primate T-lymphotropic virus 1, read-out: HTLV-1 infection EC50, Replicate 2): 1.89 nM
- EC50 (HTLV-1; Primate T-lymphotropic virus 1, read-out: HTLV-1 infection EC50, Replicate 3): 1.25 nM
- EC50 (HIV-1; [6]): 5 ± 1.3 nM
